ChEMBL document CHEMBL2440009, “Discovery of GSK2656157: An Optimized PERK Inhibitor Selected for Preclinical Development” (ACS Med Chem Lett, 2013)

Experiments:
Cytochrome P450 2C8 = molecular target: T1, Cytochrome P450 2C8 (Homo sapiens, UniProt P10632); assay: Inhibition of CYP2C8 in human liver microsomes using paclitaxel as substrate after 5 to 60 mins by LC-MS/MS analysis; assay type: ADME, Microsome
T1 sequence (P10632 whole entry): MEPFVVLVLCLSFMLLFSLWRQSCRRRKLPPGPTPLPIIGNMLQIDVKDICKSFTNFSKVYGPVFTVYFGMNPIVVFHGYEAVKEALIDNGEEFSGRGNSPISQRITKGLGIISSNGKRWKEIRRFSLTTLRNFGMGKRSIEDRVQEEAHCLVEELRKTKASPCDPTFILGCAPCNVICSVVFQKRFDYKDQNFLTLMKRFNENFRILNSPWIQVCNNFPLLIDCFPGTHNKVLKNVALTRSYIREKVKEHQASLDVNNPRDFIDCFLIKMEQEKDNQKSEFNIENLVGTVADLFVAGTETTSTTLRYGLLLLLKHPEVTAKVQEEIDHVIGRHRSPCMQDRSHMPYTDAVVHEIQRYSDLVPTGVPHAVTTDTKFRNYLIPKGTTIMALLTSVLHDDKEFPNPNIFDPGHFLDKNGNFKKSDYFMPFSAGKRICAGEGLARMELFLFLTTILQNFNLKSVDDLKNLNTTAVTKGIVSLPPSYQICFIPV

Cytochrome P450 2D6 [1] = molecular target: T2, Cytochrome P450 2D6 (Homo sapiens, UniProt P10635); assay: Inhibition of CYP2D6 in human liver microsomes using dextromethorphan as substrate after 5 to 60 mins by LC-MS/MS analysis; assay type: ADME, Microsome
Cytochrome P450 2C19 = Cytochrome P450 2C19 (Homo sapiens, UniProt P33261); assay: Inhibition of CYP2C19 in human liver microsomes using mephenytoin as substrate after 5 to 60 mins by LC-MS/MS analysis; assay type: ADME, Microsome
Cytochrome P450 2C9 = Cytochrome P450 2C9 (Homo sapiens, UniProt P11712); assay: Inhibition of CYP2C9 in human liver microsomes using diclofenac as substrate after 5 to 60 mins by LC-MS/MS analysis; assay type: ADME, Microsome
Cytochrome P450 1A2 = molecular target: T3, Cytochrome P450 1A2 (Homo sapiens, UniProt P05177); assay: Inhibition of CYP1A2 in human liver microsomes using phenacetin as substrate after 5 to 60 mins by LC-MS/MS analysis; assay type: ADME, Microsome
T3 sequence (P05177 whole entry): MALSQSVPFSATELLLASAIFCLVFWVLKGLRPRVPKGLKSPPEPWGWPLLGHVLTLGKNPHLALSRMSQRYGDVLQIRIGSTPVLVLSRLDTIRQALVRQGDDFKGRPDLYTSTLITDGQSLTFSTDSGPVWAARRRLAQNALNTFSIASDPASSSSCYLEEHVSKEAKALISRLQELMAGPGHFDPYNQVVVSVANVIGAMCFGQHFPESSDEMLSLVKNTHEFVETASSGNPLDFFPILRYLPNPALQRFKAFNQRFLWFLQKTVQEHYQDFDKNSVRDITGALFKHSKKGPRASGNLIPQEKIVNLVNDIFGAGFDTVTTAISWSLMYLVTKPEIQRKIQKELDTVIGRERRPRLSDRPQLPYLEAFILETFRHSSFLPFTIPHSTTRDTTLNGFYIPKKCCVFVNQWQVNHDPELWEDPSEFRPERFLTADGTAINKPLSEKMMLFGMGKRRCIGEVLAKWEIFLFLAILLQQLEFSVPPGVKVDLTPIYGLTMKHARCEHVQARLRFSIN

[2] = Blood clearance in Sprague-Dawley rat at 2.2 mg/kg, iv by LC-MS/MS analysis; assay type: ADME, organism-based; design: dose 2.2 mg/kg, route intravenous; conditions: whole blood
[3] = molecular target: T4, Eukaryotic translation initiation factor 2-alpha kinase 3 (Homo sapiens, UniProt Q9NZJ5); assay: Inhibition of GST-tagged PERK cytoplasmic domain (536 to 1116) (unknown origin) assessed as biotinylated His6-tagged EIF2alpha phosphorylation preincubated for 30 mins followed by ATP and eIF2alpha addition measured after 1 hr by HTRF assay
T4 sequence (Q9NZJ5 whole entry): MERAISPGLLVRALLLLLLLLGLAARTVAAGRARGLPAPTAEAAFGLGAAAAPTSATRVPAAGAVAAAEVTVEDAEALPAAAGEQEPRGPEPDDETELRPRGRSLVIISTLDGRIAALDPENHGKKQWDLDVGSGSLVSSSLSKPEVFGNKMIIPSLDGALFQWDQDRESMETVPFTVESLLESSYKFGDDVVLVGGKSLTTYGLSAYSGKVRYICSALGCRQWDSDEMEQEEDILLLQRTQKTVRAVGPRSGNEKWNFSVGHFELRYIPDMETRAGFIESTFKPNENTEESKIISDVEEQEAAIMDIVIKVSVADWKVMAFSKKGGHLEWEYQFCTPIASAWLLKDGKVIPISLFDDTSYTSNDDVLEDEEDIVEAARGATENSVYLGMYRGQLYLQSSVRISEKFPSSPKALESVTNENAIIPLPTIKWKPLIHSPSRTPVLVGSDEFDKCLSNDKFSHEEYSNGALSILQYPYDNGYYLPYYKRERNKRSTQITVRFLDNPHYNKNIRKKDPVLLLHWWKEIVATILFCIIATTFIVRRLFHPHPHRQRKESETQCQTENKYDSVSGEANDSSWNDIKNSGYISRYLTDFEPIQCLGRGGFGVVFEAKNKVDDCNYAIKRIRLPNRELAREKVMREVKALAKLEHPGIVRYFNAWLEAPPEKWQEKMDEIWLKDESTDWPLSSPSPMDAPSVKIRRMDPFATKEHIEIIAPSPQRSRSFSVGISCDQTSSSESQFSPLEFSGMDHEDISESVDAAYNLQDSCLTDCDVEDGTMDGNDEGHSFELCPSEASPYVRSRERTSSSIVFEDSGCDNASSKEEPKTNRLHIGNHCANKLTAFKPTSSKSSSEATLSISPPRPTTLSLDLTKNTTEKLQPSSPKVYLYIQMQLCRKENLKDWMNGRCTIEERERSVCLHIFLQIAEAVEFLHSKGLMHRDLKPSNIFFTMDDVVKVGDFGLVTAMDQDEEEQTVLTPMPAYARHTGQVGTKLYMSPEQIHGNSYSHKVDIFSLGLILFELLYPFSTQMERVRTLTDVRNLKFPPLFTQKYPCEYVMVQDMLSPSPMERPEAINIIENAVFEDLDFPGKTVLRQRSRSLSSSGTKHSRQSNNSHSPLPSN

eIF-2-alpha kinase GCN2 = eIF-2-alpha kinase GCN2 (Homo sapiens, UniProt Q9P2K8); assay: Inhibition of GCN2 (unknown origin) assessed as EIF2AK4 phosphorylation
[4] = molecular target: Interferon-induced, double-stranded RNA-activated protein kinase (Homo sapiens, UniProt P19525); assay: Inhibition of PKR (unknown origin) assessed as EIF2AK2 phosphorylation
[5] = molecular target: Eukaryotic translation initiation factor 2-alpha kinase 1 (Homo sapiens, UniProt Q9BQI3); assay: Inhibition of HRI (unknown origin) assessed as EIF2AK1 phosphorylation
Cytochrome P450 3A4 [6] = molecular target: T5, Cytochrome P450 3A4 (Homo sapiens, UniProt P08684); assay: Inhibition of CYP3A4 in human liver microsomes using nifedipine as substrate after 5 to 60 mins by LC-MS/MS analysis; assay type: ADME, Microsome
Cytochrome P450 3A4 [7] = molecular target: T5, Cytochrome P450 3A4; assay: Inhibition of CYP3A4 in human liver microsomes using midazolam as substrate after 5 to 60 mins by LC-MS/MS analysis; assay type: ADME, Microsome
Cytochrome P450 2D6 [8] = molecular target: T2, Cytochrome P450 2D6; assay: Inhibition of CYP2D6 in human liver microsomes using bufuralol as substrate after 5 to 60 mins by LC-MS/MS analysis; assay type: ADME, Microsome
[9] = molecular target: T4, Eukaryotic translation initiation factor 2-alpha kinase 3; assay: Inhibition of thapsigargin-induced autophosphorylation of PERK in human A549 cells preincubated for 1 hr followed by thapsigargin-induction measured after 1 hr by Western blotting analysis; assay type: cell-based

Chain of Cytochrome P450 2C9 (P11712 whole entry): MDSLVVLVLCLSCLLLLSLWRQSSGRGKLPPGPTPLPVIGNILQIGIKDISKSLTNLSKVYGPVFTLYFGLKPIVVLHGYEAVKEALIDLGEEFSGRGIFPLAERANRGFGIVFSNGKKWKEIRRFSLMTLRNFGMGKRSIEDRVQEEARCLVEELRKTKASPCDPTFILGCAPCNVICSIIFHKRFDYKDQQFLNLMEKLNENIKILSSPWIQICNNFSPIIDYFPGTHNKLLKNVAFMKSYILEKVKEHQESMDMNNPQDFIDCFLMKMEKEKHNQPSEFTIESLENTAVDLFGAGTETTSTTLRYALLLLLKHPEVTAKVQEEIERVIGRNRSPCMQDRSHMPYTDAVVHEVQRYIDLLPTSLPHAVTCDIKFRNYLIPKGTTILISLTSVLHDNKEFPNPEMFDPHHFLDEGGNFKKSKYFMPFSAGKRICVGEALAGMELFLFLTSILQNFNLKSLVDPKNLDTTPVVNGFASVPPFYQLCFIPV
T2 sequence (P10635 whole entry): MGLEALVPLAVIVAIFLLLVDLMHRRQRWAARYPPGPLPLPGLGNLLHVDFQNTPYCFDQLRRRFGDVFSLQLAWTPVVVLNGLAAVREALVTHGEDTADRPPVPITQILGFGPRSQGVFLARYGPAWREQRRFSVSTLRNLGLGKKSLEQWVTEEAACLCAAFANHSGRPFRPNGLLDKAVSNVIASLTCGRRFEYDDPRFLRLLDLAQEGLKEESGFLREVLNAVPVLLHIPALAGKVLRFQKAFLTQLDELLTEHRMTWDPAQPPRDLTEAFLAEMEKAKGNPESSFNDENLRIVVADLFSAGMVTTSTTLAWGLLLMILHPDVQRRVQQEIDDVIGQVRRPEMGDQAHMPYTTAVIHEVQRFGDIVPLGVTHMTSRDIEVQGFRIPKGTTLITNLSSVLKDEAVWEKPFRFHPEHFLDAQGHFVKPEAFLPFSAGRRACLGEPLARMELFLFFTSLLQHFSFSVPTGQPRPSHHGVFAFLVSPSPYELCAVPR
T5 sequence (P08684 whole entry): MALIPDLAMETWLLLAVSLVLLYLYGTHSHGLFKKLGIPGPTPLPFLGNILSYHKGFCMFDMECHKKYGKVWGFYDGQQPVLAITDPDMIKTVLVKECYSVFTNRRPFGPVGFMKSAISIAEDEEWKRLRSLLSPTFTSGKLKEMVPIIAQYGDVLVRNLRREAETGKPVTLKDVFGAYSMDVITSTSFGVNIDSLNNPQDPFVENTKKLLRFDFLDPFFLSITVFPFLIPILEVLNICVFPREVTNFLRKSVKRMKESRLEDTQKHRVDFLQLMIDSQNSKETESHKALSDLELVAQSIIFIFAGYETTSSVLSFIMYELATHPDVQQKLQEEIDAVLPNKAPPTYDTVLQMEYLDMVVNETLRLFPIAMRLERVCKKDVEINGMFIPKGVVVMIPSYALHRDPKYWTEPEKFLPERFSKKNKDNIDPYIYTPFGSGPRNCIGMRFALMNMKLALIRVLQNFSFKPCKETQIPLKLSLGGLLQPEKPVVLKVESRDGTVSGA
Chain of Cytochrome P450 2C19 (P33261 whole entry): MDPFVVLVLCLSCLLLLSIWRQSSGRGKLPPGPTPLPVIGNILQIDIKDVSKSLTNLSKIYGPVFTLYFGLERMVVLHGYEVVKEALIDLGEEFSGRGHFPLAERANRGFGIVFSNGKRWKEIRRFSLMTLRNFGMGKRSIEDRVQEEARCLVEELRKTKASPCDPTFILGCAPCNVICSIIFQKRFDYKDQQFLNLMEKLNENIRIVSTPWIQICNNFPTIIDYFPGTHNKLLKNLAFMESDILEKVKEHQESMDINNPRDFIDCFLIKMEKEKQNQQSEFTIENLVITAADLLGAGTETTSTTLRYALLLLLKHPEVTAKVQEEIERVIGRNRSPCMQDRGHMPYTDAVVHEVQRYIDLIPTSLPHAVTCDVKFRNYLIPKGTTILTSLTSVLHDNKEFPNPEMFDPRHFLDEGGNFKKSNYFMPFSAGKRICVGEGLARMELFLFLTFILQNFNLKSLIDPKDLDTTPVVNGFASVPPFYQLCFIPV
Chain of Interferon-induced, double-stranded RNA-activated protein kinase (P19525 whole entry): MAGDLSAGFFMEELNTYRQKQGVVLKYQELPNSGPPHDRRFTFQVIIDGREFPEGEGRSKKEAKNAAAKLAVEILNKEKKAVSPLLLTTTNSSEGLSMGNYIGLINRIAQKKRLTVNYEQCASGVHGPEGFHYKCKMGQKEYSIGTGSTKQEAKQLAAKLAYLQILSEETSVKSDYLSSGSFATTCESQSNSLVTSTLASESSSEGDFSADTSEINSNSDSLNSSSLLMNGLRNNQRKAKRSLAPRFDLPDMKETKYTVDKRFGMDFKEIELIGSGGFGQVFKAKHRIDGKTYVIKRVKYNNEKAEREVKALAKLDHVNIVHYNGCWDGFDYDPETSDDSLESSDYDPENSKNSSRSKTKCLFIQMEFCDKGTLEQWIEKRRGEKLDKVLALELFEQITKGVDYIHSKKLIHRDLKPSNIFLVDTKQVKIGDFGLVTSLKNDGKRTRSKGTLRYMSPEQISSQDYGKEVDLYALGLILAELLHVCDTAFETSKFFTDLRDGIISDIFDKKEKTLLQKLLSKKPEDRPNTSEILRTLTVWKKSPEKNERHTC
Chain of eIF-2-alpha kinase GCN2 (Q9P2K8 whole entry): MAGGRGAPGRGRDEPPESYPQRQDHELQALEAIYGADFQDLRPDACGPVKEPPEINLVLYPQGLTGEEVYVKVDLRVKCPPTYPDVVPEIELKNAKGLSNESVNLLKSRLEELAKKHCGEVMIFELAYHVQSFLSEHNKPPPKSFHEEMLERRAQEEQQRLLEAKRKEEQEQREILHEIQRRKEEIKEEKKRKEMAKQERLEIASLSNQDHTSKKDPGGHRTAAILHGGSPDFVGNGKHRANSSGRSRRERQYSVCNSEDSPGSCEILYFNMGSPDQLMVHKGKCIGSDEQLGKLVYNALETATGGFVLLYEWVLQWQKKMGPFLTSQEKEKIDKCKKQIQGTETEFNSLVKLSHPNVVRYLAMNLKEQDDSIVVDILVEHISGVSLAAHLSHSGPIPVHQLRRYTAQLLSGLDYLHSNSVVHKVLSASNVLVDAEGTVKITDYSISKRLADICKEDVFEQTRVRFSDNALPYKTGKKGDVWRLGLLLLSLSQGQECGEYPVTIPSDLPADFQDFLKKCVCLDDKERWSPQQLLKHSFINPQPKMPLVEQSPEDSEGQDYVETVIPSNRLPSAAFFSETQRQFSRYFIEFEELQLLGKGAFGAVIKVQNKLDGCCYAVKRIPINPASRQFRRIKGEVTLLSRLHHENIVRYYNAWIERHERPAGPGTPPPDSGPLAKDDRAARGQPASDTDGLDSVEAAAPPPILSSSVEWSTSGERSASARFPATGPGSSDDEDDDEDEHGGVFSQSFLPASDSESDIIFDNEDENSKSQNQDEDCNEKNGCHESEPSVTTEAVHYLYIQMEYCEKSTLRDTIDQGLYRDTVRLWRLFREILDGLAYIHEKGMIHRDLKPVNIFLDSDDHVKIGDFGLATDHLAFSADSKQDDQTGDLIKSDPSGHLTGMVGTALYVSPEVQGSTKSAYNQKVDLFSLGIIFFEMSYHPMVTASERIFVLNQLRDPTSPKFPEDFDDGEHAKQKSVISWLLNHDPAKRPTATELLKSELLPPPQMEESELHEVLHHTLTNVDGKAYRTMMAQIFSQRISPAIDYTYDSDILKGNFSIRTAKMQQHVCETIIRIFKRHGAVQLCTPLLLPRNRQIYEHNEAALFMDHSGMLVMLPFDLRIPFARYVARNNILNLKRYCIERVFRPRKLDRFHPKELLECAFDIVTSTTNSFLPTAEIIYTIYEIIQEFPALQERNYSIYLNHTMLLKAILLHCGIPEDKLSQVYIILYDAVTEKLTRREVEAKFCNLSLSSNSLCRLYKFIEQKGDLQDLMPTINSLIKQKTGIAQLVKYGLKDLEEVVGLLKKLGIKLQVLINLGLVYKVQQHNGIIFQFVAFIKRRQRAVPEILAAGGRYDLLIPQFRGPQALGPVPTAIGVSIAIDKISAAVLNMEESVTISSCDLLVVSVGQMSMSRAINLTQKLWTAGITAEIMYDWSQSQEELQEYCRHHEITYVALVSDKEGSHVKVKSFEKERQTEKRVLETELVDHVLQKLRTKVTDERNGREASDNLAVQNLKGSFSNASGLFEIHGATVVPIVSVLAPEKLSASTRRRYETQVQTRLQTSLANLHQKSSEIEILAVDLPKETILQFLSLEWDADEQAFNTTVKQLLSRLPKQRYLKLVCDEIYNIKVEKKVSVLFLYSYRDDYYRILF
Chain of Eukaryotic translation initiation factor 2-alpha kinase 1 (Q9BQI3 whole entry): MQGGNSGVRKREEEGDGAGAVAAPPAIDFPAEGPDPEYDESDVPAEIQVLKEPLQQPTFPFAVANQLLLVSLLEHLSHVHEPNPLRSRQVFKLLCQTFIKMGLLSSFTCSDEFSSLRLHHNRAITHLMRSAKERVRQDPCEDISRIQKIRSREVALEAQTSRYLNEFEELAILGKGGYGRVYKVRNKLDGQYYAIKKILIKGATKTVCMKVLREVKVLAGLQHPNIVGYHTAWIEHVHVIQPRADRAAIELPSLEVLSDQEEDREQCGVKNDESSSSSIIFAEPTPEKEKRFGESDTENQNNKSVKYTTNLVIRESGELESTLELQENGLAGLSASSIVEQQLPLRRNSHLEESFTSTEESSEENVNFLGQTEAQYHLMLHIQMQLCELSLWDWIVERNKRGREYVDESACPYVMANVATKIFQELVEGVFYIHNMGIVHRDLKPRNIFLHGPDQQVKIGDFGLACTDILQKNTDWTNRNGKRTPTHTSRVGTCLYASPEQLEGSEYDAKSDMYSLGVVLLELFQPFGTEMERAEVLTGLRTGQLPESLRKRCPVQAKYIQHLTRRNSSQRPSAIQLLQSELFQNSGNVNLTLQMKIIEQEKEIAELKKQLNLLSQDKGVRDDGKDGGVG

Compound Cn1cc(-c2ccc3c(c2)CCN3C(=O)Cc2cccc(C(F)(F)F)c2)c2c(N)ncnc21 has an IC50 (Cytochrome P450 2C8) of 0.89 µM, an IC50 (Cytochrome P450 2D6 [1]) of 23 µM and an IC50 (Cytochrome P450 2C19) of 7 µM. It also gave an IC50 (Cytochrome P450 2C9) of 4.5 µM, an IC50 (Cytochrome P450 1A2) of 21 µM and a clearance [2] of 21.5 mL/min/kg.
Work on Cn1cc(-c2ccc3c(c2)CCN3C(=O)Cc2ccccn2)c2c(N)ncnc21 yielded an IC50 [3] of 0.0191 µM.
Work on Cn1cc(-c2ccc3c(c2F)CCN3C(=O)Cc2cccc(C(F)(F)F)n2)c2c(N)ncnc21 yielded an IC50 (eIF-2-alpha kinase GCN2) of 0.776 µM, an IC50 [4] of 0.359 µM and an IC50 [5] of 0.037 µM. It also gave an IC50 (Cytochrome P450 3A4 [6]) of 7.4 µM, an IC50 (Cytochrome P450 2C8) of 5.83 µM and an IC50 (Cytochrome P450 3A4 [7]) of 9.09 µM. For the same compound, the IC50 (Cytochrome P450 2D6 [8]) was 23.7 µM, the IC50 (Cytochrome P450 2C19) was over 25 µM and the IC50 (Cytochrome P450 2C9) was 19.2 µM. The IC50 (Cytochrome P450 1A2) was over 25 µM, the clearance [2] was 8.9 mL/min/kg and the IC50 [9] was under 0.03 µM. It also gave an IC50 [3] of 0.0005 µM.
Work on Cn1cc(-c2ccc3c(c2)CCN3C(=O)Cc2cccnc2)c2c(N)ncnc21 yielded an IC50 [3] of 0.0234 µM.
Work on Cc1ccn(CC(=O)N2CCc3cc(-c4cn(C)c5ncnc(N)c45)ccc32)n1 yielded an IC50 [3] of 0.0575 µM.
For Cn1cc(-c2ccc3c(c2)CCN3C(=O)Cc2ccncc2)c2c(N)ncnc21, the IC50 [3] was 0.0638 µM.
